Measured values published in paper PMC12655351, “Synthesis and Anticancer Activity Evaluation of New 5-((5-Nitrofuran-2-yl)allylidene)-2-thioxo-4-thiazolidinones” (Pharmaceuticals, 2025).
Where “and” joins values, the source holds several entries; their conditions need not be identical. Equal entries are not always repeated.

Legend:
[1] = system: MCF-7; experiment: [3H]-thymidine incorporation assay; type: cell-based; details: Homo sapiens, MCF7; MCF-7, 24 h of treatment
Method: (§1) Another method of assessing the cytotoxic effects of tested compounds, [^3H]-thymidine incorporation assay, was applied. This method provided the capability to analyze the antiproliferative activity of novel structures on MCF-7 and MDA-MB-231 through their ability to incorporate thymidine into the cells. The acquired results further confirmed the potent activity of the 14b compound as the most prominent structure among the novel compounds (Table 2). The test was carried out in triplicate at concentrations of 5, 15, and 30 μM for the MDA-MB-231 cell line and 1, 5, and 10 μM for the MCF-7 cell line.
(§2) Following the selection of cell lines for further study, the effects of all compounds on cell proliferation were evaluated on MCF-7 and MDA-MB-231 cell lines. Cells were seeded in 24-well plates and cultured as described above. Cells were treated with the compounds at concentrations 1, 5, and 10 μM, and 5, 15, and 30 μM for MCF-7 and MDA-MB-231 cell lines, respectively, for 24 h. Subsequently, 0.5 μCi [^3H]-thymidine was added for 4 h at 37 °C. Then, plates with cells were placed on the ice, the liquid was aspirated, and cells were washed twice with 1mL of 0.05 M Tris-HCl buffer comprising 0.11 M NaCl and precipitated by adding 1 mL per well of 5% trichloroacetic. After precipitation, the cells were dissolved with 1 mL of 0.1 M NaOH with 1% SDS (Sigma-Aldrich, St. Louis, MO, USA) at room temperature (RT). The cell lysates were transferred into scintillation vials containing 2 mL of scintillation fluid (Ultima Gold™ XR, PerkinElmer, MA, USA), and cell-associated radioactivity was measured using a Scintillation Counter 1900 TR, TRI-CARB (Packard, Perkin Elmer, Inc., San Jose, CA, USA). The [^3H]-thymidine uptake was expressed as a percentage of the control value.

[2] = system: MDA-MB-231; experiment: [3H]-thymidine incorporation assay; type: cell-based; details: Homo sapiens; MDA-MB-231, 24 h of treatment
Method: as §1, §2

[3] = system: CCRF-CEM; details: 48 h
[4] = system: SR; details: 48 h
[5] = system: UACC-257; details: for CC50: human, 48 h
[6] = system: OVCAR-3; details: for GI50 / TGI: OVCAR-3, 48 h
[7] = system: SK-OV-3
[8] = system: 786-0; details: 786-0, 48 h
[9] = system: MDA-MB-231/ATCC; details: 10 μM, 48 h
[10] = system: Leukemia; details: Leukemia subpanel
[11] = system: panel of 60 cancer cell lines; details: for Positive cytostatic effect (ratio of cell lines with GP from 0 to 50 to total number) / Mean growth: 10 μM, 48 h; for Mean growth: one dose; for MG_MID TGI: full panel (last line of Table S2)
[12] = system: K-562; experiment: cells; details: Homo sapiens, K562, 48 h; for GI50: K-562, 48 h; for CC50: read-out: LC50
[13] = system: RPMI-8226; experiment: cells; details: Homo sapiens, RPMI-8226, 48 h
[14] = system: NCI/ADR-RES; experiment: cells; details: Homo sapiens, 48 h
[15] = system: TK-10; experiment: cells; details: Homo sapiens, TK-10, 48 h; for CC50: read-out: LC50, TK-10, 48 h
[16] = system: UO-31; experiment: cells; details: Homo sapiens, UO-31, 48 h
[17] = system: DU-145; experiment: cells; details: Homo sapiens, DU-145, 48 h; for CC50: read-out: LC50, DU-145, 48 h
[18] = system: HS 578T; experiment: cells; details: Homo sapiens, 48 h; for CC50: read-out: LC50
[19] = system: Leukemia; experiment: cells; details: Homo sapiens; for GI50: read-out: MG_MID GI50; for CC50: read-out: MG_MID LC50
[20] = system: Non-small cell lung cancer; experiment: cells; details: Homo sapiens; for GI50: read-out: MG_MID GI50; for CC50: read-out: MG_MID LC50
[21] = system: Melanoma; experiment: cells; details: Homo sapiens; for GI50: read-out: MG_MID GI50; for CC50: read-out: MG_MID LC50
[22] = system: Ovarian cancer; experiment: cells; details: Homo sapiens; for GI50: read-out: MG_MID GI50; for CC50: read-out: MG_MID LC50
[23] = system: Renal Cancer; experiment: cells; details: Homo sapiens; for GI50: read-out: MG_MID GI50; for CC50: read-out: MG_MID LC50
[24] = system: Breast cancer; experiment: cells; details: Homo sapiens; for GI50: read-out: MG_MID GI50; for CC50: read-out: MG_MID LC50
[25] = system: panel of 60 cancer cell lines; experiment: cells; details: Homo sapiens, read-out: MG_MID GI50
[26] = system: NCI-H266; experiment: NCI-60 SRB screen; details: for GI50 / TGI: NCI-H266, 48 h; for CC50: read-out: LC50, NCI-H266, 48 h
[27] = system: NCI-H460; experiment: NCI-60 SRB screen; details: NCI-H460, 48 h; for CC50: read-out: LC50
[28] = system: OVCAR-5; experiment: NCI-60 SRB screen; details: for GI50 / TGI: OVCAR-5, 48 h; for growth GP: OVCAR-5, 10 μM, 48 h
[29] = system: MCF7; experiment: NCI-60 SRB screen; details: MCF7, 48 h
[30] = system: RXF 393; experiment: NCI-60 SRB screen; details: RXF 393, 10 μM, 48 h

## CC(C(=O)O)N1C(=O)/C(=C/C=C/c2ccc([N+](=O)[O-])o2)SC1=S (stereo not shown) [2b, 2-((Z)-5-((E)-3-(5-Nitrofuran-2-yl)allylidene)-4-oxo-2-thioxothiazolidin-3-yl)propanoic acid]
[1]
  IC50: 6610 nM
[2]
  IC50: 5560 nM

## O=C(O)CCCCCN1C(=O)/C(=C/C=C/c2ccc([N+](=O)[O-])o2)SC1=S [14b, 6-((Z)-5-((E)-3-(5-nitrofuran-2-yl)allylidene)-4-oxo-2-thioxothiazolidin-3-yl)hexanoic acid]
[1]
  IC50: 2600 nM
[2]
  IC50: 1600 nM
[3]
  GI50: 270 nM
  TGI: 570 nM and 960 nM
[4]
  TGI: 960 nM
[5]; UACC-257, 48 h
  GI50: 1400 nM
  TGI: 3160 nM and 3080 nM
[5]
  CC50: 6810 nM
[6]; OVCAR-3, 10 μM, 48 h
  growth GP: -95.33%
[6]
  GI50: 960 nM
  TGI: 2350 nM and 2220 nM
[7]; SK-OV-3, 48 h
  GI50: 2980 nM
[8]
  GI50: 320 nM
  TGI: 2060 nM and 1230 nM
[9]
  growth GP: -99.86%
[10]
  MG_MID TGI: 11350 nM
[11]
  Positive cytostatic effect (ratio of cell lines with GP from 0 to 50 to total number): 4/55
  Mean growth: -67.89%
  MG_MID TGI: 3580 nM
[12]
  GI50: 200 nM
  CC50: > 100000 nM
[13]
  GI50: 330 nM
[14]
  GI50: 450 nM
[15]
  GI50: 1880 nM
  CC50: 5840 nM
[16]
  GI50: 520 nM
[16]; read-out: LC50, UO-31, 48 h
  CC50: 4310 nM
[17]
  GI50: 1520 nM
  CC50: 5440 nM
[18]; HS 578T
  GI50: 1440 nM
[18]
  CC50: > 100000 nM
[19]
  GI50: 410 nM
  CC50: 64900 nM
[20]
  GI50: 1480 nM
  CC50: 21800 nM
[21]
  GI50: 760 nM
  CC50: 4400 nM
[22]
  GI50: 1110 nM
  CC50: 15600 nM
[23]
  GI50: 1980 nM
  CC50: 10400 nM
[24]
  GI50: 650 nM
  CC50: 36500 nM
[25]
  GI50: 1100 nM
[26]; Homo sapiens, 48 h
  GI50: 2210 nM
  CC50: 90200 nM
[26]
  GI50: 1960 nM
  TGI: 7060 nM and 7950 nM
[27]; Homo sapiens
  GI50: 1000 nM
  CC50: 5540 nM
[27]
  GI50: 630 nM
  TGI: 2360 nM and 2310 nM
[28]; Homo sapiens
  GI50: 1850 nM
[28]
  growth GP: -96.01%
  GI50: 1560 nM
  TGI: 3310 nM and 2970 nM
[29]; Homo sapiens
  GI50: 390 nM
[29]
  GI50: 440 nM
  TGI: 1820 nM and 1990 nM

## O=C(O)CCCN1C(=O)/C(=C/C=C/c2ccc([N+](=O)[O-])o2)SC1=S [13b, 4-((Z)-5-((E)-3-(5-Nitrofuran-2-yl)allylidene)-4-oxo-2-thioxothiazolidin-3-yl)butanoic acid]
[1]
  IC50: 3970 nM
[2]
  IC50: 1770 nM
[3]
  GI50: 120 nM
  TGI: 820 nM and 780 nM
[5]; UACC-257, 48 h
  TGI: 3150 nM and 1730 nM
[5]
  CC50: 4660 nM
[6]
  GI50: 390 nM
  TGI: 2040 nM and 1360 nM
[7]; SK-OV-3, 48 h
  GI50: 2180 nM
  TGI: 7440 nM and 13100 nM
[7]; human, 48 h
  CC50: 39400 nM
[8]
  GI50: 280 nM
  TGI: 1300 nM and 900 nM
[9]
  growth GP: -95.61%
[10]
  MG_MID TGI: 28300 nM
[11]
  Positive cytostatic effect (ratio of cell lines with GP from 0 to 50 to total number): 2/55
  Mean growth: -76.34%
  MG_MID TGI: 4880 nM
[12]
  GI50: 160 nM
  CC50: > 100000 nM
[13]
  GI50: 360 nM
[13]; read-out: LC50
  CC50: > 100000 nM
[14]
  GI50: 290 nM
[15]
  CC50: 5840 nM
[17]
  GI50: 1090 nM
  CC50: 4920 nM
[18]
  CC50: > 100000 nM
[19]
  GI50: 9340 nM
  CC50: 87000 nM
[20]
  GI50: 1210 nM
  CC50: 24600 nM
[21]
  GI50: 590 nM
  CC50: 3600 nM
[22]
  GI50: 960 nM
  CC50: 13200 nM
[23]
  GI50: 990 nM
  CC50: 7480 nM
[24]
  GI50: 530 nM
  CC50: 36000 nM
[25]
  GI50: 1610 nM
[26]; Homo sapiens, 48 h
  GI50: 2790 nM
  CC50: 76100 nM
[26]
  GI50: 1650 nM
  TGI: 11900 nM and 9780 nM
[27]; Homo sapiens
  GI50: 630 nM
  CC50: 4940 nM
[27]
  GI50: 330 nM
  TGI: 1990 nM and 1390 nM
[28]
  growth GP: -97.64%
  TGI: 3320 nM and 2020 nM
[30]
  growth GP: -97.90%
[29]; Homo sapiens
  GI50: 350 nM
[29]
  GI50: 200 nM
  TGI: 1970 nM and 1580 nM
